Laboratory results from US5753518A, “Method of determining affinity and kinetic properties” (Pharmacia AB, priority 1993, dated 1998).

Columns and labels:
Assay type in all cases: binding, mouse
[1] = test system: monoclonal anti-theophylline antibody; test: Competitive kinetics: theophylline derivatives mixed with aminotheophylline-conalbumin conjugate over captured anti-theophylline Mab (BIAcore SPR); settings: 500 nM ligand solution mixed with 620 nM conjugate solution; 10 μl/min for 90 seconds; FIG. 5
Protocol: (§1) A continuous flow of HBS (10 mM Hepes with 0.15M NaCl, 3.4 mM EDTA and 0.05% surfactant P20 at pH 7.4) was maintained over a BIAcore™ sensor chip CM5 (a gold-plated glass slide supporting a carboxymethyldextran layer via a monolayer of long-chain hydrocarbons; supplied by Pharmacia Biosensor AB, Uppsala, Sweden). The carboxylated matrix on the sensor surface was activated by a three-minute injection of a solution containing 0.2M N-ethyl-N'-(3-diethylaminopropyl)carbodiimide (EDC) and 0.05M N-hydroxysuccinimide (NHS). 100 μg/ml of rabbit anti-mouse Fc (RAMFc) antibodies (Pharmacia Biosensor AB, Uppsala, Sweden) in 10 mM acetate buffer, pH 4.75, were then injected followed by a pulse of ethanolamine-hydrochloride, pH 8.5, to block remaining NHS-ester groups.
Different solutions of the above prepared conalbumin conjugate varying in concentration from 100 to 1000 nM, were then injected and the binding curves were recorded.

[2] = test system: monoclonal anti-histamine antibody; test: Competitive kinetics: histamine and methylhistamine mixed with histamine-conalbumin conjugate over captured anti-histamine Mab (BIAcore SPR); settings: 220 nM ligand solution mixed with 80 nM conjugate solution; 10 μl/min for 8 minutes; FIG. 6
Protocol: as §1
Different solutions of the above prepared conalbumin conjugate, varying in concentration from 100 to 1000 nM, were then injected and the binding curves were recorded. […] For the following competitive experiment, a concentration of 80 nM was chosen.

[3] = test system: monoclonal anti-p24 antibody (Mab 7); test: Competitive kinetics: synthetic p24 derived peptides mixed with p24 over captured anti-p24 Mab (BIAcore SPR); settings: for affinity for the antibody (qualitative): p24 at 60 nM and the peptides at 44 μM, FIG. 4
Protocol: With the above prepared sensor surface docked into the BIAcore™ instrument, a solution of purified monoclonal anti-p24 antibody (Pharmacia Diagnostics AB, Uppsala, Sweden), hereinafter referred to as Mab 7, was injected, the anti-p24 monoclonal antibody thereby being captured by the immobilized RAMFc. Different solutions of HIV core protein p24 (Pharmacia Genetic Engineering, San Diego, USA), varying in concentration from 18.75 to 300 nM, were then injected and the binding curves, relative response in resonance units (RU) versus time in seconds, were recorded (1 RU corresponds to a mass change, caused by the binding of a protein, on the sensor surface of about 1 pg/mm^2; Stenberg, E., et al., J. Colloid and Interface Sci. 143 (1991) 513-526).
100 μl volumes of a 60 nM solution of p24 in HBS were mixed with 100 μl of different concentrations (5 nM to 1 mM) of two synthetic p24 derived peptides corresponding to (i) the regions 329-352 (peptide 7): […] (Mw =2494), and (ii) the regions 332-349 (peptide 5): […] (Mw =1841) (obtained from Dr Ake Engstrom, Department of Immunology, Biomedical Center, University of Uppsala, Sweden). The peptide sequences are according to Ratner et al., Nature 313, 227-284, 1985 and are numbered according to Myers G. et al., Database Human Retroviruses and AIDS, Los Alamos National Laboratory, Los Alamos, U.S.A., 1988. Each mixture was injected at 10 μl/min for two minutes over the sensor surface with captured anti-p24 antibody and the respective binding curves for each peptide were recorded. Peptide 5 was used at the concentrations: 0, 4.91, 14.75, 44.26, 132.78, 398.33, and 1195.00 μM; and peptide 7 at the concentrations 0, 0.005, 0.016, 0.049, 0.147, 0.441, and 1.323 μM.
The binding curves for peptide 5 are shown in overlay plot in FIG. 2, and a corresponding overlay plot of the binding curves for peptide 7 is shown in FIG. 3. […] Evidently, these two peptides have quite different affinities for the immobilized antibody.

Compound | affinity for the antibody (relative ranking) [1] | affinity for the antibody (relative ranking) [2] | affinity for the antibody (qualitative) [3] | also measured
Cn1c(=O)c2c(ncn2CC(=O)O)n(C)c1=O [acetic acid derivative of theophylline, 7-theophylline acetic acid] | much lower affinity |  |  | 
NCCc1c[nH]cn1 [histamine] |  | methylhistamine has a higher affinity for the antibody than histamine itself |  | 
DCKTILKALGPAATLEEMMTACQG [peptide 7, synthetic p24 derived peptide, regions 329-352] |  |  | high affinity | peptide concentration at which competing kinetics is seen ([3]; mixed with 60 nM p24 solution, 10 μl/min for two minutes, FIG. 3): 5 nM
TILKALGPAATLEEMMTA [peptide 5, synthetic p24 derived peptide, regions 332-349] |  |  | low affinity | peptide concentration at which competition is evident ([3]; mixed with 60 nM p24 solution, 10 μl/min for two minutes, FIG. 2): evident only at μM concentrations
aminotheophylline | highest affinity |  |  | 
methylhistamine |  | higher affinity |  | 
